Patent publication US20230151003A1, “COMPOUNDS AND METHODS OF USE” (Exelixis, Inc., priority 2020, published 2023)

Tests used:
Format in all cases: biochemical
[1] = molecular target: T1, Human AXL (Homo sapiens, UniProt P30530); assay: Human AXL kinase assay (HTRF KinEase); conditions: Table 2 Biological Activities, ATP at Km (1.0 μM)
T1 construct: Human AXL (residues 464-885; CarnaBio, 1 ng/ well); purchased CarnaBio
T1 sequence (P30530 464-885 isoform P30530-2): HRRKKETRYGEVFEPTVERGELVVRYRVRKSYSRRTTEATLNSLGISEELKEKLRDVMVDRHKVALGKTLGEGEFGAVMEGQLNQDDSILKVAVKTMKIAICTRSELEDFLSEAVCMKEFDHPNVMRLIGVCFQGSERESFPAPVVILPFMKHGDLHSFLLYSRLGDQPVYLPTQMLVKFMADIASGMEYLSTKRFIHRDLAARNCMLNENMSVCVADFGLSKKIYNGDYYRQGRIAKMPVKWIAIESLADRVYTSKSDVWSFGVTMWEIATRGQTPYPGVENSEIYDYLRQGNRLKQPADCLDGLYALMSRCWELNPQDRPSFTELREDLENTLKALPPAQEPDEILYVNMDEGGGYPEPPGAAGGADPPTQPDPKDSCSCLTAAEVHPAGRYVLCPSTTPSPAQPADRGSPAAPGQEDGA
Procedure: (§1) Kinase activity and compound inhibition were investigated using the HTRF® KinEase assay (Cisbio Cat #62TKOPEB) per manufacturer's instructions. In short, compounds were delivered in 300 nL volumes at 10 different concentrations in DMSO (3% final) to empty 384-well assay plates (Corning cat #3824). A mixture of enzyme, 1 μM biotynlated peptide substrate, and buffer in 10 μL volume was added. The assay was started upon the addition of ATP (at Km). The 10 μL reaction was incubated at room temperature. The reaction was stopped upon the addition of detection buffer containing streptavidin-XL665 (5 μL) and TK antibody-Eu3+ (5 μL). After a 60 min incubation at room temperature, the fluorescence at 665 nm and 620 nm was read on an Envision microplate reader (Perkin Elmer). Kinase activity normalized to DMSO (100% activity) and reference compound at 1 μM and (0% activity) was calculated using the fluorescence ratio […]. IC50 values were calculated by nonlinear regression analysis using a 4-parameter logistic curve fit in ActivityBase XE (IDBS).
Human AXL (residues 464-885; CarnaBio, 1 ng/ well) was incubated with enzymatic buffer (Cisbio) supplemented with 5 mM MgCl2, 1 mM DTT, and Supplemental Enzymatic Buffer (SEB; Cisbio). The mixture was added to the pre-plated compounds. The reaction was initiated upon addition of ATP at Km (1.0 μM). The reaction was incubated at room temperature for 50 min and stopped upon the addition of SA-XL665 and TK-antibody both diluted in EDTA-containing kinase detection buffer (Cisbio). The kinase activity was calculated as stated above and the IC50 values were reported.

[2] = molecular target: Met (Homo sapiens, UniProt P08581); assay: Human MET kinase assay (HTRF KinEase); design: Human MET (residues 956-1390; CarnaBio, 0.1 ng/ well); purchased CarnaBio; conditions: Table 2 Biological Activities, ATP at Km (3.0 μM), read-out: c-Met IC50
Procedure: as §1
(§2) Human MET (residues 956-1390; CarnaBio, 0.1 ng/ well) was incubated with enzymatic buffer (Cisbio) supplemented with 5 mM MgCl2, 1 mM DTT and 1 mM MnCl2. The mixture was added to the pre-plated compounds. The reaction was initiated upon addition of ATP at Km (3.0 μM). The reaction was incubated at room temperature for 40 min and stopped upon the addition of SA-XL665 and TK-antibody both diluted in EDTA-containing kinase detection buffer (Cisbio). The kinase activity was calculated as stated above and the IC50 values were reported.

[3] = molecular target: T2, Human MER (Homo sapiens, UniProt Q12866); assay: Human MER kinase assay (HTRF KinEase); conditions: Table 2 Biological Activities, ATP at Km (40 μM)
T2 construct: Human MER (residues 528-999; CarnaBio, 1 ng/ well); purchased CarnaBio
T2 sequence (Q12866 528-999): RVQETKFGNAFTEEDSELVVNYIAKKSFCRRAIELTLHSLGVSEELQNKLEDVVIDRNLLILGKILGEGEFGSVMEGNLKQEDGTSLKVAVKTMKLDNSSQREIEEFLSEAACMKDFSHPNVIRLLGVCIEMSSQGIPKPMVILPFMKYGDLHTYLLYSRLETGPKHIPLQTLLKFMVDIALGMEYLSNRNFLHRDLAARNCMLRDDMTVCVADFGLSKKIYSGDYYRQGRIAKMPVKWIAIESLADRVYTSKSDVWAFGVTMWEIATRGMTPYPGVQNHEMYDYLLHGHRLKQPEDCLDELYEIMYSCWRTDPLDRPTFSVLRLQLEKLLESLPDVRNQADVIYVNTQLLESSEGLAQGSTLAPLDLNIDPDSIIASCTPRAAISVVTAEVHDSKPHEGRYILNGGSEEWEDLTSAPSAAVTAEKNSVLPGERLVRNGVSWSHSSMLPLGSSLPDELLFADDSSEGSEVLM
Procedure: as §1
Human MER (residues 528-999; CarnaBio, 1 ng/ well) was incubated with enzymatic buffer (Cisbio) supplemented with 5 mM MgCl2 and 1 mM DTT. The mixture was added to the pre-plated compounds. The reaction was initiated upon addition of ATP at Km (40 μM). The reaction was incubated at room temperature for 60 min and stopped upon the addition of SA-XL665 and TK-antibody both diluted in EDTA-containing kinase detection buffer (Cisbio). The kinase activity was calculated as stated above and the IC50 values were reported.

[4] = molecular target: KDR (Homo sapiens, UniProt P35968); assay: Human KDR kinase assay (HTRF KinEase); design: Human KDR (residues 790-1356; CarnaBio, 0.1 ng/ well); purchased CarnaBio; conditions: Table 2 Biological Activities, ATP at Km (4.0 μM)
Procedure: as §1
as §2, with “KDR” for “MET”, “790-1356;” for “956-1390;”, “MnCl2,” for “DTT”, “DTT.” for “MnCl2.”, “(4.0” for “(3.0”

Chain of Met (P08581 956-1390): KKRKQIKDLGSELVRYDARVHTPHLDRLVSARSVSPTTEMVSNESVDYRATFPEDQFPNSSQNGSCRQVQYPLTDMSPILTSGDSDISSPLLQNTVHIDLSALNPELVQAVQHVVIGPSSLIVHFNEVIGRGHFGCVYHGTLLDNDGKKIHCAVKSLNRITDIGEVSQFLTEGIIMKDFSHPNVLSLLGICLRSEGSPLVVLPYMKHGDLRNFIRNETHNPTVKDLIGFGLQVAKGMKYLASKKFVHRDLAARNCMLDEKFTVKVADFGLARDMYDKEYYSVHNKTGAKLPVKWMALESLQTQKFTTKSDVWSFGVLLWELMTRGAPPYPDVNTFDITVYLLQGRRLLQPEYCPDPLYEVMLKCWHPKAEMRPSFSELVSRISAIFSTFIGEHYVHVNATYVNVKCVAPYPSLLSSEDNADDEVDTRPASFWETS
Chain of KDR (P35968 790-1356): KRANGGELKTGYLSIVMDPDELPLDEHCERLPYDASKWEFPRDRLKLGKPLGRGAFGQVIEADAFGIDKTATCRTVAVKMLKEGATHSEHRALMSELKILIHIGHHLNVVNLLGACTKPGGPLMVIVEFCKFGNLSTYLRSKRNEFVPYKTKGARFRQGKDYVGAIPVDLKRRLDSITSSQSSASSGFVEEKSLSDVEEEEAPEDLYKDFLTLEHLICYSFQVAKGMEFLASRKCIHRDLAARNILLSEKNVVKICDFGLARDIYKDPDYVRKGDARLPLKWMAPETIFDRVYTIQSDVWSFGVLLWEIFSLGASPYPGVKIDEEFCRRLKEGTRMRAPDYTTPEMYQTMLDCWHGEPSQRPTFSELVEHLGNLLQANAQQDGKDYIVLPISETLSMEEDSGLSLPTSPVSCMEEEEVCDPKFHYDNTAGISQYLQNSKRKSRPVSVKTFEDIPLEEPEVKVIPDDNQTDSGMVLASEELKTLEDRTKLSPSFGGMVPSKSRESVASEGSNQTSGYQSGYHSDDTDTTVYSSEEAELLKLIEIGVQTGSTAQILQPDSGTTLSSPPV

SMILES	IC50 [1] [nM]	IC50 [2] [nM]	IC50 [3] [nM]	IC50 [4] [nM]
COc1cc2nccc(Oc3ccc(NC(=O)c4ccc(C)n(-c5ccncc5)c4=O)cc3F)c2nc1OC [Compound 221, N-[4-[(6,7-Dimethoxy-1,5-naphthyridin-4-yl)oxy]-3-fluorophenyl]-6-methyl-2-oxo-1-pyridin-4-ylpyridine-3-carboxamid]	≤ 100	≤ 100	–	–
COc1cc2nccc(Oc3ccc(NC(=O)c4c(C)n(C)cc(-c5ccc(F)cn5)c4=O)cc3)c2nc1OC [Compound 72, N-[4-[(6,7-Dimethoxy-1,5-naphthyridin-4-yl)oxy]phenyl]-5-(5-fluoropyridin-2-yl)-1,2-dimethyl-4-oxopyridine-3-carboxamide]	–	300 to 1000	100 to 300	300 to 1000
COc1cnc2c(Oc3ccc(NC(=O)c4c(C)n(C)cc(-c5ccc(F)cn5)c4=O)cc3F)ccnc2c1 [Compound 73, N-[3-Fluoro-4-[(7-methoxy-1,5-naphthyridin-4-yl)oxy]phenyl]-5-(5-fluoropyridin-2-yl)-1,2-dimethyl-4-oxopyridine-3-carboxamide]	–	300 to 1000	100 to 300	300 to 1000
COc1ccc2nccc(Oc3ccc(NC(=O)c4ccc(C)n(-c5ccc(F)cn5)c4=O)cc3F)c2n1 [Compound 47, N-[3-Fluoro-4-[(6-methoxy-1,5-naphthyridin-4-yl)oxy]phenyl]-1-(5-fluoropyridin-2-yl)-6-methyl-2-oxopyridine-3-carboxamide]	≤ 100	100 to 300	≤ 100	300 to 1000
COc1cc2nccc(Oc3ccc(NC(=O)c4cc(C#N)c(C)n(-c5ccc(F)cn5)c4=O)cc3F)c2nc1OC [Compound 56, 5-Cyano-N-[4-[(6,7-dimethoxy-1,5-naphthyridin-4-yl)oxy]-3-fluorophenyl]-1-(5-fluoropyridin-2-yl)-6-methyl-2-oxopyridine-3-carboxamide]	–	≤ 100	≤ 100	300 to 1000
Cc1ccc(C(=O)Nc2ccc(Oc3ccnc4cccnc34)c(F)c2)c(=O)n1-c1ccc(F)cn1 [Compound 48, N-[3-Fluoro-4-(1,5-naphthyridin-4-yloxy)phenyl]-1-(5-fluoropyridin-2-yl)-6-methyl-2-oxopyridine-3-carboxamide]	≤ 100	≤ 100	≤ 100	300 to 1000
COc1cc2nccc(Oc3ccc(NC(=O)c4c(C)nc(C)c(-c5ccc(F)cn5)c4O)cc3)c2nc1OC [Compound 216, N-[4-[(6,7-Dimethoxy-1,5-naphthyridin-4-yl)oxy]phenyl]-5-(5-fluoropyridin-2-yl)-4-hydroxy-2,6-dimethylpyridine-3-carboxamide]	≤ 100	≤ 100	–	–
COc1cc2nccc(Oc3ccc(NC(=O)c4c(C)nc(C)c(-c5ccc(F)cn5)c4O)cc3F)c2nc1OC [Compound 218, N-[4-[(6,7-Dimethoxy-1,5-naphthyridin-4-yl)oxy]-3-fluorophenyl]-5-(5-fluoropyridin-2-yl)-4-hydroxy-2,6-dimethylpyridine-3-carboxamide]	≤ 100	≤ 100	–	–
COc1ccc2nccc(Oc3ccc(NC(=O)c4ccc(C)n(-c5ccc(F)cn5)c4=O)cc3F)c2c1 [Compound 49, N-[3-Fluoro-4-(6-methoxyquinolin-4-yl)oxyphenyl]-1-(5-fluoropyridin-2-yl)-6-methyl-2-oxopyridine-3-carboxamide]	–	≤ 100	≤ 100	100 to 300

Continued, values first:

IC50 [1] [nM]	IC50 [2] [nM]	IC50 [3] [nM]	IC50 [4] [nM]	SMILES
≤ 100	≤ 100	≤ 100	100 to 300	COc1cc2nccc(Oc3ccc(NC(=O)c4ccc(C)n(-c5ncc(F)cc5C)c4=O)cc3F)c2nc1OC [Compound 51, N-[4-[(6,7-Dimethoxy-1,5-naphthyridin-4-yl)oxy]-3-fluorophenyl]-1-(5-fluoro-3-methylpyridin-2-yl)-6-methyl-2-oxopyridine-3-carboxamide]
–	–	≤ 100	300 to 1000	COc1cc2nccc(Oc3ccc(NC(=O)c4c(C)n(C)cc(-c5ccc(F)cn5)c4=O)cc3F)c2nc1OC [Compound 71, N-[4-[(6,7-Dimethoxy-1,5-naphthyridin-4-yl)oxy]-3-fluorophenyl]-5-(5-fluoropyridin-2-yl)-1,2-dimethyl-4-oxopyridine-3-carboxamide]
≤ 100	≤ 100	–	–	COCc1nc(C)c(-c2ccc(F)cn2)c(O)c1C(=O)Nc1ccc(Oc2ccnc3cc(OC)c(OC)nc23)c(F)c1 [Compound 214, N-[4-[(6,7-Dimethoxy-1,5-naphthyridin-4-yl)oxy]-3-fluorophenyl]-5-(5-fluoropyridin-2-yl)-4-hydroxy-2-(methoxymethyl)-6-methylpyridine-3-carboxamid]
–	100 to 300	≤ 100	300 to 1000	Cc1ccc(C(=O)Nc2ccc(Oc3ccnc4cnc(Cl)cc34)c(F)c2)c(=O)n1-c1ccc(F)cn1 [Compound 54A, N-[4-[(6-Chloro-1,7-naphthyridin-4-yl)oxy]-3-fluorophenyl]-1-(5-fluoropyridin-2-yl)-6-methyl-2-oxopyridine-3-carboxamide]
≤ 100	≤ 100	–	–	COc1cnc2c(Oc3ccc(NC(=O)c4c(C)nc(C)c(-c5ccc(F)cn5)c4O)cc3F)ccnc2c1 [Compound 217, N-[3-Fluoro-4-[(7-methoxy-1,5-naphthyridin-4-yl)oxy]phenyl]-5-(5-fluoropyridin-2-yl)-4-hydroxy-2,6-dimethylpyridine-3-carboxamide]
≤ 100	≤ 100	–	–	COc1cc2nccc(Oc3ccc(NC(=O)c4ccc(C)n(-c5ccncc5F)c4=O)cc3F)c2nc1OC [Compound 220, N-[4-[(6,7-Dimethoxy-1,5-naphthyridin-4-yl)oxy]-3-fluorophenyl]-1-(3-fluoropyridin-4-yl)-6-methyl-2-oxopyridine-3-carboxamide]
